# Test results: patent publication US20070128217A1 (priority 2003, published 2007)
# Columns and labels:
# [1] = tested on: rabbit serum obtained by immunizing a rabbit with the SARS-CoV strain Frankfurt 1; assay type: binding; design: Binding of a rabbit serum to linear peptides / Binding of a rabbit serum to looped peptides / Rabbit serum linear peptides / Rabbit serum looped peptides / Binding of a rabbit serum to linear peptides of protein N of SARS-CoV Urbani (Rabbit serum linear peptides) / Binding of a rabbit serum to looped/cyclic peptides of protein N of SARS-CoV Urbani (Rabbit serum looped peptides): unit not given here
# [2] = tested on: control sera (pooled serum of ten healthy LUMC hospital workers; commercial negative donor pooled serum from the Dutch bloodbank); assay type: binding, human; design: Binding of Control serum LUMC to linear peptides / Binding of Control serum Blood-bank to linear peptides / Binding of Control serum LUMC to looped peptides / Binding of Control Serum Blood-Bank to Looped peptides / Binding of Control serum LUMC to linear peptides of the protein M of SARS-CoV Urbani / Binding of Control serum Blood-bank to linear peptides of the protein M of SARS-CoV Urbani / Binding of Control serum LUMC to looped peptides of the protein M of SARS-CoV Urbani / Binding of Control Serum Blood-Bank to Looped peptides of the protein M of SARS-CoV Urbani: unit not given here
# [3] = tested on: antibodies in sera from SARS patients (sera 1a, 1b, 2, 6, 37, 62, London, SARS-yellow, SARS-green); assay type: binding, human; design: Binding of serum 6 to linear peptides of protein X1 of SARS-CoV Urbani / Binding of serum 37 to linear peptides of protein X1 of SARS-CoV Urbani / Binding of serum 6 to looped/cyclic peptide (PEPSCAN-ELISA) / Binding of serum 37 to looped/cyclic peptide (PEPSCAN-ELISA) / Binding of serum 37 to looped/cyclic peptides of protein X1 of SARS-CoV Urbani / Binding of serum 6 to linear peptides of protein X2 / Binding of serum 37 to linear peptides of protein X2 / Binding of serum 37 to looped/cyclic peptides of protein X2 of SARS-CoV Urbani / Binding of serum 6 to linear peptides of protein M of SARS-CoV Urbani / Binding of serum 37 to linear peptides of protein M of SARS-CoV Urbani / Binding of serum 6 to looped/cyclic peptides of protein M of SARS-CoV Urbani / Binding of serum 37 to looped/cyclic peptides of protein M of SARS-CoV Urbani / Binding of serum 6 to linear peptides of protein X3 of SARS-CoV Urbani / Binding of serum 37 to linear peptides of protein X3 of SARS-CoV Urbani / Binding of serum 37 to looped/cyclic peptides of protein X3 of SARS-CoV Urbani / Binding of serum 6 to linear peptides of protein X4 of SARS-CoV Urbani / Binding of serum 37 to linear peptides of protein X4 of SARS-CoV Urbani / Binding of serum 37 to looped/cyclic peptides of protein X4 of SARS-CoV Urbani / Binding of serum 6 to linear peptides of protein X5 of SARS-CoV Urbani / Binding of serum 37 to linear peptides of protein X5 of SARS-CoV Urbani / Binding of serum 37 to looped/cyclic peptides of protein X5 of SARS-CoV Urbani / Binding of serum 6 to linear peptides of protein N of SARS-CoV Urbani / Binding of serum 37 to linear peptides of protein N of SARS-CoV Urbani / Binding of serum 6 to linear peptide (PEPSCAN-ELISA) / Binding of serum 1a to looped/cyclic peptides of protein N of SARS-CoV Urbani / Binding of serum 1b to looped/cyclic peptides of protein N of SARS-CoV Urbani / Binding of serum 2 to looped/cyclic peptides of protein N of SARS-CoV Urbani / Binding of serum 6 to looped/cyclic peptides of protein N of SARS-CoV Urbani / Binding of serum 37 to looped/cyclic peptides of protein N of SARS-CoV Urbani / Binding of serum 62 to looped/cyclic peptides of protein N of SARS-CoV Urbani / Binding of serum London to looped/cyclic peptides of protein N of SARS-CoV Urbani / Binding of serum SARS-green to looped/cyclic peptides of protein N of SARS-CoV Urbani: unit not given here
sequence,measurement,setting,value
TSLSLHKLLQTLVLK,Binding of a rabbit serum to linear peptides,[1],0.2
same,Binding of a rabbit serum to looped peptides,[1],0.5
same,Binding of Control Serum Blood-Bank to Looped peptides,[2],0.6
same,Binding of Control serum Blood-bank to linear peptides,[2],0.9
same,Binding of Control serum LUMC to linear peptides,[2],0.6
same,Binding of Control serum LUMC to looped peptides,[2],0.6
same,Binding of serum 1a to linear peptides of protein X2,[3],0.7
same,Binding of serum 1a to looped/cyclic peptides of protein X2 of SARS-CoV Urbani,[3],0.5
same,Binding of serum 1b to linear peptides of protein X2,[3],0.6
same,Binding of serum 1b to looped/cyclic peptides of protein X2 of SARS-CoV Urbani,[3],0.4
same,Binding of serum 2 to linear peptides of protein X2,[3],0.5
same,Binding of serum 2 to looped/cyclic peptides of protein X2 of SARS-CoV Urbani,[3],0.3
same,Binding of serum 6 to linear peptides of protein X2,[3],1.0
same,Binding of serum 6 to looped/cyclic peptides of protein X2 of SARS-CoV Urbani,[3],0.3
same,Binding of serum 37 to linear peptides of protein X2,[3],0.6
same,Binding of serum 37 to looped/cyclic peptides of protein X2 of SARS-CoV Urbani,[3],0.4
same,Binding of serum 62 to linear peptides of protein X2,[3],0.7
same,Binding of serum 62 to looped/cyclic peptides of protein X2 of SARS-CoV Urbani,[3],0.6
same,Binding of serum London to linear peptides of protein X2,[3],0.6
same,Binding of serum London to looped/cyclic peptides of protein X2 of SARS-CoV Urbani,[3],0.2
same,Binding of serum SARS-green to linear peptides of protein X2,[3],0.7
same,Binding of serum SARS-green to looped/cyclic peptides of protein X2 of SARS-CoV Urbani,[3],0.4
same,Binding of serum SARS-yellow to linear peptides of protein X2,[3],0.6
same,Binding of serum SARS-yellow to looped/cyclic peptides of protein X2 of SARS-CoV Urbani,[3],0.5
TSRTLSYYKLGASQR,Rabbit serum linear peptides,[1],0.3
same,Rabbit serum looped peptides,[1],1.1
same,Binding of Control Serum Blood-Bank to Looped peptides of the protein M of SARS-CoV Urbani,[2],0.6
same,Binding of Control serum Blood-bank to linear peptides of the protein M of SARS-CoV Urbani,[2],0.9
same,Binding of Control serum LUMC to linear peptides of the protein M of SARS-CoV Urbani,[2],1.0
same,Binding of Control serum LUMC to looped peptides of the protein M of SARS-CoV Urbani,[2],0.8
same,Binding of serum 1a to linear peptides of protein M of SARS-CoV Urbani,[3],0.7
same,Binding of serum 1a to looped/cyclic peptides of protein M of SARS-CoV Urbani,[3],0.7
same,Binding of serum 1b to linear peptides of protein M of SARS-CoV Urbani,[3],0.7
same,Binding of serum 1b to looped/cyclic peptides of protein M of SARS-CoV Urbani,[3],0.3
same,Binding of serum 2 to linear peptides of protein M of SARS-CoV Urbani,[3],0.7
same,Binding of serum 2 to looped/cyclic peptides of protein M of SARS-CoV Urbani,[3],0.7
same,Binding of serum 6 to linear peptides of protein M of SARS-CoV Urbani,[3],0.9
same,Binding of serum 6 to looped/cyclic peptides of protein M of SARS-CoV Urbani,[3],1.3
same,Binding of serum 37 to linear peptides of protein M of SARS-CoV Urbani,[3],0.7
same,Binding of serum 37 to looped/cyclic peptides of protein M of SARS-CoV Urbani,[3],0.6
same,Binding of serum 62 to linear peptides of protein M of SARS-CoV Urbani,[3],0.5
same,Binding of serum 62 to looped/cyclic peptides of protein M of SARS-CoV Urbani,[3],0.6
same,Binding of serum London to linear peptides of protein M of SARS-CoV Urbani,[3],0.5
same,Binding of serum London to looped/cyclic peptides of protein M of SARS-CoV Urbani,[3],0.7
same,Binding of serum SARS-green to linear peptides of protein M of SARS-CoV Urbani,[3],0.7
same,Binding of serum SARS-green to looped/cyclic peptides of protein M of SARS-CoV Urbani,[3],0.3
same,Binding of serum SARS-yellow to linear peptides of protein M of SARS-CoV Urbani,[3],0.5
same,Binding of serum SARS-yellow to looped/cyclic peptides of protein M of SARS-CoV Urbani,[3],0.9
TTSLSLHKLLQTLVL,Binding of a rabbit serum to linear peptides,[1],0.1
same,Binding of a rabbit serum to looped peptides,[1],0.4
same,Binding of Control Serum Blood-Bank to Looped peptides,[2],0.6
same,Binding of Control serum Blood-bank to linear peptides,[2],0.6
same,Binding of Control serum LUMC to linear peptides,[2],0.4
same,Binding of Control serum LUMC to looped peptides,[2],0.6
same,Binding of serum 1a to linear peptides of protein X2,[3],0.5
same,Binding of serum 1a to looped/cyclic peptides of protein X2 of SARS-CoV Urbani,[3],0.5
same,Binding of serum 1b to linear peptides of protein X2,[3],0.5
same,Binding of serum 1b to looped/cyclic peptides of protein X2 of SARS-CoV Urbani,[3],0.4
same,Binding of serum 2 to linear peptides of protein X2,[3],0.3
same,Binding of serum 2 to looped/cyclic peptides of protein X2 of SARS-CoV Urbani,[3],0.4
same,Binding of serum 6 to linear peptides of protein X2,[3],0.5
same,Binding of serum 6 to looped/cyclic peptides of protein X2 of SARS-CoV Urbani,[3],0.5
same,Binding of serum 37 to linear peptides of protein X2,[3],0.5
same,Binding of serum 37 to looped/cyclic peptides of protein X2 of SARS-CoV Urbani,[3],0.5
same,Binding of serum 62 to linear peptides of protein X2,[3],0.5
same,Binding of serum 62 to looped/cyclic peptides of protein X2 of SARS-CoV Urbani,[3],0.6
same,Binding of serum London to linear peptides of protein X2,[3],0.5
same,Binding of serum London to looped/cyclic peptides of protein X2 of SARS-CoV Urbani,[3],1.3
same,Binding of serum SARS-green to linear peptides of protein X2,[3],0.6
same,Binding of serum SARS-green to looped/cyclic peptides of protein X2 of SARS-CoV Urbani,[3],0.3
same,Binding of serum SARS-yellow to linear peptides of protein X2,[3],0.3
same,Binding of serum SARS-yellow to looped/cyclic peptides of protein X2 of SARS-CoV Urbani,[3],0.5
TVSQIQLSLLKVTAF,Binding of a rabbit serum to linear peptides,[1],0.6
same,Binding of a rabbit serum to looped peptides,[1],0.5
same,Binding of Control Serum Blood-Bank to Looped peptides,[2],0.7
same,Binding of Control serum Blood-bank to linear peptides,[2],0.5
same,Binding of Control serum LUMC to linear peptides,[2],0.6
same,Binding of Control serum LUMC to looped peptides,[2],0.7
same,Binding of serum 1a to linear peptides of protein X2,[3],0.5
same,Binding of serum 1a to looped/cyclic peptides of protein X2 of SARS-CoV Urbani,[3],0.5
same,Binding of serum 1b to linear peptides of protein X2,[3],0.4
same,Binding of serum 1b to looped/cyclic peptides of protein X2 of SARS-CoV Urbani,[3],0.5
same,Binding of serum 2 to linear peptides of protein X2,[3],0.4
same,Binding of serum 2 to looped/cyclic peptides of protein X2 of SARS-CoV Urbani,[3],0.4
same,Binding of serum 6 to linear peptides of protein X2,[3],0.5
same,Binding of serum 6 to looped/cyclic peptides of protein X2 of SARS-CoV Urbani,[3],1.0
same,Binding of serum 37 to linear peptides of protein X2,[3],0.6
same,Binding of serum 37 to looped/cyclic peptides of protein X2 of SARS-CoV Urbani,[3],0.4
same,Binding of serum 62 to linear peptides of protein X2,[3],0.4
same,Binding of serum 62 to looped/cyclic peptides of protein X2 of SARS-CoV Urbani,[3],0.6
same,Binding of serum London to linear peptides of protein X2,[3],0.3
same,Binding of serum London to looped/cyclic peptides of protein X2 of SARS-CoV Urbani,[3],1.4
same,Binding of serum SARS-green to linear peptides of protein X2,[3],0.1
same,Binding of serum SARS-green to looped/cyclic peptides of protein X2 of SARS-CoV Urbani,[3],0.4
same,Binding of serum SARS-yellow to linear peptides of protein X2,[3],0.6
same,Binding of serum SARS-yellow to looped/cyclic peptides of protein X2 of SARS-CoV Urbani,[3],0.7
